Data on 1 compound can be found in paper PMC11285368, “Chasing Red Herrings: Palladium Metal Salt Impurities Feigning KRAS Activity in Biochemical Assays” (Journal of Medicinal Chemistry, 2024).

Format in all cases: biochemical
The target in experiment [1] is T1, KRAS^G12D(GTP)::CRAF (Homo sapiens, UniProt P01116, G12D).
T1 construct: KRAS^G12D 1–169, N-terminal 6His-tag, C-terminal avi-tag (Xtal BioStructures, Inc.); 6His (N); purchased Xtal BioStructures, Inc. (KRAS); Viva Biotech Ltd. (CRAF)
T1 sequence (P01116 1-169 isoform P01116-2 G12D): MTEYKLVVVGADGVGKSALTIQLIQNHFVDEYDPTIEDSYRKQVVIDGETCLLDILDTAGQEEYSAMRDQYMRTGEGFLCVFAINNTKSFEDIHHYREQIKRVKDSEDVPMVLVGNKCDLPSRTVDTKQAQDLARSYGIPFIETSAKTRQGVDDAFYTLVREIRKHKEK
In words: KRAS^G12D(GTP)::CRAF AlphaScreen. How it is done: The proteins have been used at these given final assay concentrations:
Test compounds dissolved in DMSO were dispensed onto assay plates (Proxiplate 384 PLUS, white, PerkinElmer; 6008289) using an Access Labcyte Workstation with the Labcyte Echo 555. For the chosen highest assay concentration of 100 μM, 150 nl of compound solution were transferred from a 10 mM DMSO compound stock solution. A series of 11 5-fold dilutions per compound was transferred to the assay plate, and compound dilutions were tested in duplicates. DMSO was added as backfill to a total volume of 150 nl. The assay was run on a fully automated robotic system in a darkened room below 100 Lux. […] After 60 min incubation time 5 μL of AlphaScreen bead mix in assay buffer were added into columns 1–23. Bead mix consisted of AlphaLISA Glutathione Acceptor Beads (PerkinElmer, cat. no. AL109) and Alpha-Screen Streptavidin Donor Beads (perkinElmer cat. no. 6760002) in assay buffer at a final assay concentration of 10 μg/mL each. Plates were kept at room temperature in a darkened incubator. After an additional 60 min incubation time the signal was measured on a PerkinElmer Envision HTS Multilabel Reader using the AlphaScreen specs from PerkinElmer.
(§1) IC50 values were calculated and analyzed with Boehringer Ingelheim’s MEGALAB IC50 application using a 4 parametric logistic model.
Background: In Alpha technology, singlet oxygen from a donor bead excites a nearby acceptor bead.

In another experiment the target is biotinylated GST (Schistosoma japonicum, UniProt P08515). In words: Control assay (AlphaScreen Shortcut). The method, then: This assay was developed to identify compounds that interfere with the assay format using AlphaLISA Glutathione Acceptor and AlphaScreen Streptavidin Donor beads. The assay was performed as described above using biotinylated GST as bridging reagent instead of KRAS^G12D and CRAF mix.
biotinylated GST, sequence (P08515 whole entry): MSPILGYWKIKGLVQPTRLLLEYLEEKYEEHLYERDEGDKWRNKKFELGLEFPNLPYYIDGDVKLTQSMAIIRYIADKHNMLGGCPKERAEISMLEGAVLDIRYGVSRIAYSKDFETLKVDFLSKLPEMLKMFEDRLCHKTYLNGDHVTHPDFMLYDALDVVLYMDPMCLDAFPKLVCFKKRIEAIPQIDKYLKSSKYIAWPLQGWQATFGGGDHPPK

Experiment [2] addresses T1, KRAS^G12D(GTP)::CRAF. In words: KRAS^G12D(GTP)::CRAF TR-FRET. As to conditions: Fluorescence; GST-CRAF^(51–131) and KRAS^G12D(1–169)-biotin. How it is done:
Plates were kept at room temperature in a darkened incubator.
as §1
For orientation: TR-FRET usually uses a lanthanide donor and a delayed reading to cut background.

Like-named read-outs stand apart in the source and are kept apart here.

One may read the IC50 as the concentration needed to halve the response being measured.

Turning to `[Cl][Pd][Cl]` [PdCl2, Palladium(II) chloride], the half-maximal inhibitory concentration (IC50) is 0.7 ± 0.2 µM on KRAS^G12D(GTP)::CRAF [1] (Batch 1, read-out: KRAS^G12D(GTP)::CRAF AlphaScreen IC50); 0.7 ± 0.2 µM on KRAS^G12D(GTP)::CRAF [1] (Luminescence, GST-CRAF^(1–303) and KRAS^G12D(1–169)-biotin, read-out: IC50, KRAS^G12D(GTP)::CRAF AlphaScreen); 5.8 ± 0.7 µM on biotinylated GST (Batch 1, read-out: Control assay IC50); 5.8 ± 0.7 µM on biotinylated GST (Luminescence, biotinylated GST, read-out: IC50, Control assay); 40.5 ± 19.2 µM against KRAS^G12D(GTP)::CRAF [2].
